Values after ≈ are worked out from the molar mass of the structure shown. Where two headings read alike, the source gives them in different places.
Key:
[1] = system: P. falciparum NF54 strain (sensitive to standard antimalarials); assay: semiautomated microdilution assay, [3H]-hypoxanthine incorporation, NF54 strain; format: cell-based, Plasmodium falciparum; conditions: NF54 strain, 72 h incubation
How it was run: (§1)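 Intraerythrocytic stages from unsynchronised stock cultures are exposed to test compounds in a semiautomated microdilution format, and fifty percent inhibitory concentrations are then fitted by logit regression.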

[2] = system: P. falciparum K1 strain (Thailand resistant to chloroquine); assay: semiautomated microdilution assay, [3H]-hypoxanthine incorporation, K1 strain; format: cell-based, Plasmodium falciparum; conditions: K1 strain, 72 h incubation
How it was run: as §1

[3] = system: parasitemia (malaria infection); assay: onset of action and recrudescence experiments; format: in vivo; conditions: for Time of Recrudescence: single 100 mg/kg po (SSV) on day +3 post-infection, recrudescence = >5% parasitemia, followed up to 60 days, (n/5) = animals
Method: The onset of drug action was determined after a single fixed dose of 100 mg/kg (SSV vehicle) po to groups of five animals on day +3 post-infection (day 0).

[4] = system: ANKA strain of Plasmodium berghei; assay: single dose ED50/ED90/ED99 determinations in infected mice; format: in vivo; conditions: single dose po in SSV, mice, percent reduction in parasitemia on day three post-infection
How it was run: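 Mice (Moro SPF or NMRI, n=3 per group) infected with P. berghei ANKA received a single dose on day 1 post-infection, vehicle 0.5% CMC/0.5% benzyl alcohol/0.4% Tween 80/0.9% NaCl in water. Read-out is percent reduction in parasitemia on day 3; ED values by nonlinear fitting.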

[5] = dosing in rats; format: in vivo; conditions: rat
Description: (§2) Artesunate is listed as a reference compound.

[6] = system: ANKA strain of P. berghei; assay: single dose STI in vivo screen in infected mice; parameters: species or system Plasmodium berghei
How it was run: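 Groups of 3-5 Moro SPF or NMRI mice infected with the ANKA strain of P. berghei received a single dose of trioxolane on day one post-infection. The compound was given in 3% ethanol and 7% Tween 80 or in SSV (0.5% w/v CMC, 0.5% v/v benzyl alcohol, 0.4% v/v Tween 80, 0.9% w/v sodium chloride in water). Antimalarial activity was scored as percent reduction in parasitemia on day three and as survival time versus untreated controls. Survival to day 30 counted as cure.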

[7] = system: Schistosoma mansoni adult schistosomes (49-day-old); assay: effect on adult schistosomes (49-day-old) in mice; format: in vivo; conditions: single 400 mg/kg per os
Method: Mice were infected with 100 Schistosoma mansoni cercariae […]. Each group was treated per os with OZ compounds at single doses of 200, 400, and 600 mg/kg. […] All groups were killed 4 weeks after treatment and the liver and intestine were removed and separated. The liver and intestine were compressed and alive male and female worms could be seen and counted.

[8] = dosing in dogs; format: in vivo; conditions: dog
Description: as §2

[9] = system: Schistosoma mansoni 21-day-old schistosomules; assay: effect on 21-day-old schistosomules in mice; format: in vivo; conditions: single 200 mg/kg per os, female mice
Method: All groups were killed 4 weeks after treatment and the liver and intestine were removed and separated. The liver and intestine were compressed and alive male and female worms could be seen and counted. The effect of the compounds was evaluated by mean total and female worm burden.

[10] = chemical properties of OZ277 salts; conditions: salt of OZ277
[11] = system: P. berghei ANKA strain; assay: treatment: 3x3 mg/kg and 3x1 mg/kg po divided doses in infected mice; format: in vivo, Plasmodium berghei; conditions: for Activity (%) p.o. SSV: percent reduction of parasitemia day 4
How it was run: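 NMRI mice infected i.v. with 2×10^7 P. berghei ANKA-parasitized erythrocytes on day 0, then dosed orally in SSV vehicle at 3×3 or 3×1 mg/kg on days 1–3. Day-4 Giemsa smears gave percent parasitemia reduction versus untreated controls; survival to day 30 counted as cure.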

[12] = system: P. berghei ANKA strain; assay: prophylactic activity, single 100 mg/kg po dose before infection; format: in vivo, Plasmodium berghei; conditions: for Prophylactic Activity (%): reduction of parasitemia day 3 post-infection
Method: Moro NMRI male mice (Fü Albino specific pathogen free) weighing 18±2 g were infected intravenously (i.v.) with 2×10^7 P. berghei ANKA strain-infected erythrocytes from donor mice on day 0 of the experiment. From donor mice with circa 30% parasitemia, heparinized blood was taken and diluted in physiological saline to 10^8 parasitized erythrocytes per ml. An aliquot (0.2 ml) of this suspension was injected i.v. into experimental and control groups of mice. In untreated control mice, parasitemia rose regularly to 40 to 50% by day 3 post-infection and 70 to 80% by day 4 post-infection. The mice died between days 5 and 7 post-infection. Throughout the experiments, mice were kept in groups of three or five animals in Makrolon type II cages in an air-conditioned animal room at 22 to 23° C. A diet with p-aminobenzoic acid (PABA) of 45 mg (NAFAG FUTTER© food N^o 9009 PAB-45) per kg of body weight, and tap water is available ad libitum.
OZ compounds were prepared at an appropriate concentration, either as a solution or a suspension containing SSV (0.5% w/v CMC, 0.5% v/v benzyl alcohol, 0.4% v/v Tween 80, and 0.9% w/v sodium chloride in water). They were administered per os (p.o.) in a total volume of 0.01 ml per gram of mouse. The activity of the compound was determined by a variety of methods outlined in subsequent sections. Survival time was also recorded, and survival to day 30 post-infection was considered to be a cure.
Prophylactic activities of the compounds were compared after administering po single dose of 100 mg/kg to different groups of five animals at various times before infection. All groups including an untreated control group, were then infected at the same time. Parasitemia was determined for each animal on day 3 post-infection, and percent of reduction of the level of parasitemia compared to levels for animals given no drug is determined.

[13] = system: Schistosoma japonicum; assay: effect in mice infected with Schistosoma japonicum; format: in vivo; conditions: age of worm 35 days, 400 mg/kg x 1
[14] = 3 × 1 mg/kg days 1, 2, 3 post-infection
[15] = 3 × 3 mg/kg days 1, 2, 3 post-infection
[16] = single 100 mg/kg po 24 h before infection

Compound | IC50 (ng/ml) NF54 [1] [ng/mL] | IC50 (ng/ml) K1 [2] [ng/mL] | Time of Recrudescence [3] [days] | ED90 [4] [mg/kg] | ED99 [4] [mg/kg] | % reduction of adult worms growth at day 49 after per os application of 400 mg/kg, TWR (%) [7] [%] | % reduction of schistosomule growth at day 21 after per os application of 200 mg/kg, FWR (%) [9] | % reduction of schistosomule growth at day 21 after per os application of 200 mg/kg, TWR (%) [9] | Chemical Stability [10] | Crystallinity [10] | Particle size (90% of particles less than) [10] | Physical stability [10] | Stability in analytical solution (up to 24 hrs) [10] | Activity (%) p.o. SSV [11, 14] [%] | Activity (%) p.o. SSV [11, 15] [%] | Prophylactic Activity (%) [12, 16] [%] | Prophylactic Activity (%) ([12]; single 100 mg/kg po at 0 h) | further results
O=C(C[C@H]1CC[C@]2(CC1)OOC1(O2)C2CC3CC(C2)CC1C3)NO (stereo partly shown) [OZ175] | 2.0 (≈ 5.93 nM) | 1.4 (≈ 4.15 nM) | 13.0 | 6.2 | 9.9 |  |  |  |  |  |  |  |  |  |  |  |  | ED50 [4]: 3.5 mg/kg
NC(=O)CNC[C@H]1CC[C@]2(CC1)OOC1(O2)C2CC3CC(C2)CC1C3 (stereo partly shown) [OZ256] | 0.2 (≈ 0.571 nM) | 0.3 (≈ 0.856 nM) |  |  |  | 10 | 86% | 85% |  |  |  |  |  |  |  |  |  | IV t1/2 (10 mg/kg) ([5]; IV 10 mg/kg): 1.57 h; Oral Bioavailability 10 mg/kg ([5]; oral 10 mg/kg): 18.6%; Oral Bioavailability 25 mg/kg ([5]; oral 25 mg/kg): 51.9%; Oral t1/2 (25 mg/kg) ([5]; oral 25 mg/kg): 1.22 h; Activity (%) po ([6]; percent reduction in parasitemia day 3 post-infection, single 10 mg/kg po in 3% ethanol and 7% Tween 80, mice): 99.70%; Activity (%) sc ([6]; percent reduction in parasitemia day 3 post-infection, single 10 mg/kg sc in 3% ethanol and 7% Tween 80, mice): 99.95%; Activity (%) SSVpo ([6]; percent reduction in parasitemia day 3 post-infection, single po dose in standard suspending vehicle (SSV), mice): 99.67%; Survival (days) po ([6]; single 10 mg/kg po in 3% ethanol and 7% Tween 80, untreated control 5.6 ± 0.3): 8.7 days; Survival (days) sc ([6]; single 10 mg/kg sc in 3% ethanol and 7% Tween 80, untreated control 5.6 ± 0.3): 9.7 days; Survival (days) SSVpo ([6]; single po dose in SSV, untreated control 5.6 ± 0.3): 8.7 days; adult worms at day 49, per os 400 mg/kg, DEAD WORM (%) [7]: 19%; IV t1/2 (10 mg/kg) ([8]; IV 10 mg/kg): 1.42 h; Oral t1/2 (10 mg/kg) ([8]; oral 10 mg/kg): 1.38 h; Oral Bioavailability 10 mg/kg ([8]; oral 10 mg/kg, OZ 279, OZ 256, OZ 209 values flagged (V)): 42.0%; Oral Bioavailability 25 mg/kg ([8]; oral 25 mg/kg, OZ 279, OZ 256, OZ 209 values flagged (V)): 38.3%
CC(C)(N)CNC(=O)CC1CCC2(CC1)OOC1(O2)C2CC3CC(C2)CC1C3.Cc1ccc(S(=O)(=O)O)cc1 (stereo not shown) [Tosylate] |  |  |  |  |  |  |  |  | Stable | Crystalline | ˜50 μm | Stable | Stable |  |  |  |  | 
OC(c1cc(C(F)(F)F)nc2c(C(F)(F)F)cccc12)C1CCCCN1 (stereo not shown) [MFQ, mefloquine, reference compound] |  |  | 28.0 | 5.4 | 6.8 |  |  |  |  |  |  |  |  | 2 | 98 | 100 | 100 | IC50 ([1]; Plasmodium falciparum, read-out: IC50 (ng/ml) NF54): 5 ng/mL (≈ 13.2 nM); Activity (%) 3 mg/kg SSV po ([6]; percent reduction in parasitemia day 3 post-infection, single 3 mg/kg po in SSV): 9%; Survival (days) 3 mg/kg SSV po ([6]; single 3 mg/kg po in SSV): 6.3 days; Survival (days) 10 mg/kg SSV po ([6]; single 10 mg/kg po in SSV): 17 days; onset of action (decline in parasitemia) ([3]; single 100 mg/kg po (SSV), parasitemia monitored 12, 24, 48 h after treatment): slow onset of action; Survival (days) p.o. SSV [11, 14]: 6.2 days; Survival (days) p.o. SSV [11, 15]: 12 days; ED50 ([4]; Plasmodium berghei, read-out: ED50): 4 mg/kg; Prophylactic Activity (%) ([12]; single 100 mg/kg po 48 h before infection): 99.92%; Prophylactic Activity (%) ([12]; single 100 mg/kg po 72 h before infection): 99.97%; duration of prophylactic protection ([12]; single 100 mg/kg po before infection): 3 days
CC(C)(N)CNC(=O)CC1CCC2(CC1)OOC1(O2)C2CC3CC(C2)CC1C3.O=C(O)CCC(=O)O (stereo not shown) [Succinate] |  |  |  |  |  |  |  |  | Stable | Crystalline | ˜150 μm | Stable | Stable |  |  |  |  | 
CO[C@H]1O[C@@H]2O[C@@]3(C)CC[C@H]4[C@H](C)CC[C@@H]([C@H]1C)[C@@]24OO3 [AM, artemether, reference compound] |  |  |  | 4.2 | 7.1 | 53 | (n4) 85% | (n4) 85% |  |  |  |  |  | 51 | 86 | 0 | 100 | FWRR/% (female worm reduction rate) [13]: 71%; Mice without ♀ worm [13]: 0/7; WRR/% (worm reduction rate) [13]: 62%; MTWB/x ± SD (mean total worm burden) ([13]; control 26.6 ± 4.2): 10.1 ± 4.4

Source: US6906205B2, “Spiro and dispiro 1,2,4-trioxolane antimalarials” (Medicines for Malaria Venture MMV, priority 2002, dated 2005)
